Source: PubChem BioAssay (NCI)
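These data come from cells grown in 96-well plates and exposed to compound for 48 hours at five concentrations. Abbreviation: GI50, concentration required for 50% inhibition of growth. Definition used: TGI = concentration required for complete inhibition of growth.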

Key:
Assay in all cases: NCI-60 cell line screen, 48 h
HCC-2998 colon = system: HCC-2998 colon
SF-539 CNS = system: SF-539 CNS
SW-620 colon = system: SW-620 colon
OVCAR-3 ovarian = system: OVCAR-3 ovarian
A549 NSCLC = system: A549 NSCLC
IGROV1 ovarian = system: IGROV1 ovarian
OVCAR-4 ovarian = system: OVCAR-4 ovarian
K-562 leukemia = system: K-562 leukemia
BT-549 breast = system: BT-549 breast
NCI-H23 lung = system: NCI-H23 lung

Row | Compound | GI50 (HCC-2998 colon) [µM] | TGI (HCC-2998 colon) [µM] | GI50 (SF-539 CNS) [µM] | TGI (SF-539 CNS) [µM] | GI50 (SW-620 colon) [µM] | TGI (SW-620 colon) [µM] | GI50 (OVCAR-3 ovarian) [µM] | TGI (OVCAR-3 ovarian) [µM] | GI50 (A549 NSCLC) [µM] | TGI (A549 NSCLC) [µM] | GI50 (IGROV1 ovarian) [µM] | TGI (IGROV1 ovarian) [µM] | GI50 (OVCAR-4 ovarian) [µM] | TGI (OVCAR-4 ovarian) [µM] | GI50 (K-562 leukemia) [µM] | TGI (K-562 leukemia) [µM] | GI50 (BT-549 breast) [µM] | TGI (BT-549 breast) [µM] | GI50 (NCI-H23 lung) [µM] | TGI (NCI-H23 lung) [µM]
1 | Oc1ccc2ccccc2c1C1NN=C(c2ccccc2)S1 (centres undefined) | 0.353 | 16.6 | 0.361 | 16 | 0.806 | > 100 | 0.443 | 11.8 | 0.587 | 84.1 | 0.485 | 30.3 | 0.515 | > 71.3 | 0.504 | > 100 | 0.858 | 28.9 | 1.26 | 48.7
2 | COc1ccc(-c2cn(-c3cccc(C(=O)/C=C/c4ccc(O)c(OC)c4)c3)c(=O)[nH]2)cc1 | 2.39 | 6.14 | 2.12 | 5.53 | 2.42 | 6.22 | 2.48 | 7.37 | 3.64 | > 53 | 3.58 | 18.2 | 4.03 | > 24.4 | 4.71 | > 37.7 | 3.32 | 22.8 | 3.57 | 25.2
3 | CC(C)[NH-].CC(C)[NH-].O.O.[Cl][Pt+2][Cl] | 87.9 | 220 | 47.3 | 160 | 23.1 | 137 | 21.1 | 59.1 | 33.9 | 213 | 33.4 | 132 | 28.7 | 106 | 39.1 | 179 | 56 | 266 | 30.8 | 183
4 | COc1ccc2nc3cc([N+](=O)[O-])ccc3c(NCCCN(CCO)CCO)c2c1 | 2.87 | 7.88 | 7.63 | 20.3 | 3.15 | 12.3 | 5.53 | 12.3 | 10.9 | 24.6 | 2.51 | 7.13 | 3.81 | 11.4 | 1.94 | 4.77 | 5.58 | 12.8 | 6.43 | 14.2
5 | O=C(NCCCCCCNC(=O)n1cc(F)c(=O)[nH]c1=O)NCCCOCCOCCOCCOCCOCCOCCOCCOCCOCCOCCOCCOCCOCCOCCOCCOCCOCCOCCOCCOCCOCCCNC(=O)C(O)C(O)C(OC1OC(CO)C(O)C(O)C1O)C(O)CO (centres undefined) |  | > 87.2 |  | 22.7 |  | > 100 |  | > 100 |  | > 100 |  | > 100 |  | > 100 |  | > 100 |  | > 100 |  | > 100
6 | Cc1ccc(C(=O)N2CCN(C(=O)c3ccc(C)cc3)c3ccccc32)cc1 |  | 40.9 |  | 11.9 |  | > 100 |  | 10.6 |  | > 100 |  | > 100 |  | > 100 |  | > 100 |  | > 100 |  | > 100
7 | COc1cc(-c2csc(NC(=O)Nc3cc(C(F)(F)F)cc(C(F)(F)F)c3)n2)cc(OC)c1OC | 3.81 | 14.4 | 2.28 | 6.75 | 3.21 | 14.6 | 2.39 | 10.6 | 2.62 | 12.4 | 4.25 | 18.1 | 2.68 | 17 | 1.92 | 12 | 2.38 | 7.84 | 2.38 | 13.2
8 | O=C(O)c1ccc2c3c(ncnc13)-c1ccccc1C2=O | 8.52 | > 100 | 8.5 | > 100 | 4.78 | > 100 | 31.2 | > 100 | 2.23 | 4.84 | 43.9 | > 100 | > 100 | > 100 | 42.1 | > 100 | 2.51 | > 29.9 | 0.796 | 3.05
9 | O=C(NCCN1CCC(O)CC1)c1cc2c(o1)C(=O)c1ccccc1C2=O | 0.208 | 0.451 | 0.211 | 0.471 | 0.31 | 1.05 | 0.242 | 0.658 | 0.213 | 0.514 | 0.3 | 1.02 | 0.182 | 0.436 | 0.378 |  | 0.17 | 0.326 | 0.0536 | 0.257
10 | Nc1nc2ccc3[nH]ncc3c2c2c1CCCC2 | 1.61 | 3.62 | 1.51 | 3.18 | 1.55 | 10 | 2.78 | 9.87 | 2.24 | 13.4 | 2.29 | 11.2 | 3.6 | 7.92 | 3.15 | 15 | 1.38 | 3.34 | 1.41 | 3.12
11 | O=C(O)C1C(=O)Oc2c(cccc2[N+](=O)[O-])C1O (centres undefined) |  | > 100 |  | > 100 |  | > 100 |  | > 100 |  | > 100 |  | > 100 |  | > 100 |  | > 100 |  | > 100 |  | > 100
